Usually inhibition stands for the drop in the measured response relative to a control, in per cent. Usually IC50 stands for the concentration needed to halve the response being measured. What is called Kd is the equilibrium constant for the complex coming apart.

Each structure is given as a SMILES string.

The target in test [1] is DNA (cytosine-5)-methyltransferase 3A (Mus musculus) (UniProt O88508). Description: Inhibition of murine DNMT3A catalytic domain-mediated DNA methylation using 5'-6FAM-tagged 30-mer duplex DNA (17 AT bp) as substrate at 60 uM preincubated for 30 mins followed by enzyme addition relative to control.
Test [2] addresses T1, DNA (cytosine-5)-methyltransferase 3A (Mus musculus, UniProt O88508). Description: Inhibition of murine DNMT3A catalytic domain-mediated DNA methylation using 5'-6FAM-tagged 30-mer duplex DNA (17 AT bp) as substrate preincubated for 30 mins followed by enzyme addition.
For test [3], the target named is DNA (cytosine-5)-methyltransferase 3A (Mus musculus) (UniProt O88508). Briefly: Binding affinity to murine DNMT3A catalytic domain assessed as fold reduction in compound fluorescence at 5 uM by dialysis method relative to control.
Test [4] deals with DNA. Briefly: Binding affinity to 5'-6FAM-tagged 30-mer duplex DNA (22 AT bp) (unknown origin) assessed as dissociation constant for complound-DNA complex by fluorescence polarization assay. Type of test: nucleic-acid assay.
Test [5] has as its target T1, DNA (cytosine-5)-methyltransferase 3A. Description: Inhibition of murine DNMT3A catalytic domain-mediated DNA methylation using 5'-6FAM-tagged 30-mer duplex DNA (22 AT bp) as substrate preincubated for 30 mins followed by enzyme addition.
Test [6] deals with DNA. Description: Binding affinity to 5'-6FAM-tagged 30-mer duplex DNA (17 AT bp) (unknown origin) assessed as dissociation constant for complound-DNA complex by fluorescence polarization assay. Type of test: nucleic-acid assay. A general note: Fluorescence polarisation rises when a labelled molecule tumbles more slowly, as on binding a larger partner.
In test [7] the target is DNA (cytosine-5)-methyltransferase 3A (Mus musculus) (UniProt O88508). Briefly: Inhibition of murine DNMT3A catalytic domain-mediated DNA methylation using 5'-6FAM-tagged 30-mer duplex DNA (22 AT bp) as substrate at 60 uM preincubated for 30 mins followed by enzyme addition relative to control.
The target of test [8] is DNA (cytosine-5)-methyltransferase 3A (Homo sapiens, UniProt Q9Y6K1). Description: Binding affinity to DNMT3A catalytic domain (unknown origin) assessed as inhibition of enzyme-mediated DNA methylation preincubated for 1 hr followed by enzyme addition measured after 1 hr in presence of AdoMet by PAGE analysis.
Chain of DNA (cytosine-5)-methyltransferase 3A (Homo sapiens, UniProt Q9Y6K1) (Q9Y6K1 whole entry, looked up, the tested form may be a part): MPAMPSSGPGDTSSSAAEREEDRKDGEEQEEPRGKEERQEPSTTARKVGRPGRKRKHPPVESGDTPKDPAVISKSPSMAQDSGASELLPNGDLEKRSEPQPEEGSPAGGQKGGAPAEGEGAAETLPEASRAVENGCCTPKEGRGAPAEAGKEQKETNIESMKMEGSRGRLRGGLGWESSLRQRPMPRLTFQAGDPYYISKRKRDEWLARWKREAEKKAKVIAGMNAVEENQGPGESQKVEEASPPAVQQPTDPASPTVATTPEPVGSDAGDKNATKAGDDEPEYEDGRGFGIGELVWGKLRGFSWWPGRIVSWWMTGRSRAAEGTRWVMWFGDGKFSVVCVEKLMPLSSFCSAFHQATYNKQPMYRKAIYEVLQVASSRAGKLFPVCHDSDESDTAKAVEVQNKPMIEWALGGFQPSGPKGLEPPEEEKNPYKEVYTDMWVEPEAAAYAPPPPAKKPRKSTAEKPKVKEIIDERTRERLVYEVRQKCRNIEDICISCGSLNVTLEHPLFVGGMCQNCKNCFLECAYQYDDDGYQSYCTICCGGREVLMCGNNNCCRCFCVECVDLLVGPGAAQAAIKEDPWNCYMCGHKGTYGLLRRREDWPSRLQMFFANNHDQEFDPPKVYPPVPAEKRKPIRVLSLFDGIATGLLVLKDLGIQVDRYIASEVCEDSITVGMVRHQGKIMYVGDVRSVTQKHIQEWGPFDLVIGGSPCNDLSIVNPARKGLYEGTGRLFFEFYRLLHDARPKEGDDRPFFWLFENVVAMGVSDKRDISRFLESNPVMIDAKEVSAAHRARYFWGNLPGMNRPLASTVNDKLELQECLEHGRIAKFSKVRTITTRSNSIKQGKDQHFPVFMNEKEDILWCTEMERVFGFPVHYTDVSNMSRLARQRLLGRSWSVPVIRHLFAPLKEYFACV

Turning to `COc1cccc2c1C(=O)c1c(O)c3c(c(O)c1C2=O)C[C@@](O)(C(=O)CO)C[C@@H]3O[C@H]1C[C@H](N)[C@H](O)[C@H](C)O1` [DOXORUBICIN], the inhibition in test [1] stood at 70%. Besides, the midpoint of inhibition in test [2], the IC50, lay at 3 µM.
As for `CC(=O)c1ccc2c(c1)c1cc(C(C)=O)ccc1n2CCNC(C)C`, the fold change (FC) in test [3] turned out to be 20. The inhibition in test [1] was 80%; in test [7] it was 51%. Also, the half-maximal inhibitory concentration (IC50) in test [2] is 9 µM; in test [5], 5 µM. Further, the equilibrium dissociation constant (Kd) stood at 34 µM in test [4] and 20 µM in test [6].
Take `CCC1/C=C/C=C/C[C@H](C)[C@@H](O)[C@](C)(O)C(=O)[C@@H](C)[C@H](O)[C@@H](C)C(=O)[C@H](C)[C@@H](O)[C@H](C)/C=C/C(=O)OC2[C@@H](C)C(CC1)OC1(CC[C@@H](C)C(C[C@H](C)O)O1)[C@@H]2C` (stereo not given in full): in test [8], the IC50 amounted to 6 µM.

For the origin of these results see ChEMBL document CHEMBL4622935, “Novel anticancer drug curaxin CBL0137 impairs DNA methylation by eukaryotic DNA methyltransferase Dnmt3a” (Bioorg Med Chem Lett, 2020).
